# Measured values taken from the supplement of paper PMC10307832.
# What was measured:
# Test in all cases: relative viability (nuclei count vs DMSO), 5 days (fraction); higher = more cells survive
# Axitinib + AZD7762 = compound: CNC(=O)c1ccccc1Sc1ccc2c(/C=C/c3ccccn3)n[nH]c2c1 [Axitinib] + NC(=O)Nc1cc(-c2cccc(F)c2)sc1C(=O)N[C@H]1CCCNC1 [AZD7762] (partner 0.2 µM)
# Summary of the method: (§1)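 Relative viability divides the nuclei count in treated wells by that in vehicle wells. Lung cancer cell lines were seeded in 1536-well plates, dosed by pin tool the next day, and fixed and stained after 5 days in one step with final 0.05% Triton X-100, 1% formaldehyde and 1 ug/ml Hoechst. Dosing was a single drug or a fixed anchor-drug dose plus five library-drug doses (not always all listed) in √10 steps, and values are medians of duplicate plates imaged at 4×.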
# [1] = compound: CC1=CC=C(C=C1)C(=O)CN2C3=C(CCCC3)SC2=N [Pifithrin_alpha] + Nc1nc2[nH]cc(CCc3ccc(C(=O)N[C@@H](CCC(=O)O)C(=O)O)cc3)c2c(=O)[nH]1 [Pemetrexed] (partner 0.2 µM)
# Summary of the method: as §1
# [2] = compound: CC1=CC=C(C=C1)C(=O)CN2C3=C(CCCC3)SC2=N [Pifithrin_alpha] + CC(=O)Nc1cccc(-n2c(=O)n(C3CC3)c(=O)c3c(Nc4ccc(I)cc4F)n(C)c(=O)c(C)c32)c1 [Trametinib] (partner 0.02 µM)
# Summary of the method: as §1
# Axitinib + Luminespib = compound: CNC(=O)c1ccccc1Sc1ccc2c(/C=C/c3ccccn3)n[nH]c2c1 [Axitinib] + CCNC(=O)c1noc(-c2cc(C(C)C)c(O)cc2O)c1-c1ccc(CN2CCOCC2)cc1 [Luminespib] (partner 0.01 µM)
# Summary of the method: as §1
Cell Line,relative viability (Axitinib + AZD7762; first compound 0.005 µM),relative viability (Axitinib + AZD7762; first compound 0.01581 µM),relative viability (Axitinib + AZD7762; first compound 0.05 µM),relative viability (Axitinib + AZD7762; first compound 0.1581 µM),relative viability (Axitinib + AZD7762; first compound 0.5 µM),relative viability ([1]; first compound 1 µM),relative viability ([1]; first compound 3.162 µM),relative viability ([1]; first compound 10 µM),relative viability ([1]; first compound 31.62 µM),relative viability ([1]; first compound 100 µM),relative viability ([2]; first compound 1 µM),relative viability ([2]; first compound 3.162 µM),relative viability ([2]; first compound 10 µM),relative viability ([2]; first compound 31.62 µM),relative viability ([2]; first compound 100 µM),relative viability (Axitinib + Luminespib; first compound 0.005 µM),relative viability (Axitinib + Luminespib; first compound 0.01581 µM),relative viability (Axitinib + Luminespib; first compound 0.05 µM),relative viability (Axitinib + Luminespib; first compound 0.1581 µM),relative viability (Axitinib + Luminespib; first compound 0.5 µM)
NCI-H522,0.754,0.924,0.787,0.9,0.794,0.805,0.978,1.02,0.796,1.05,0.61,0.754,0.743,0.693,0.618,1.28,1.18,1.02,0.998,1.02
H3255,0.841,0.734,0.891,0.915,0.879,0.507,0.533,0.537,0.532,0.505,0.578,0.831,0.546,0.421,0.442,0.922,0.609,0.935,0.83,0.828
NCI-H3122,0.976,0.991,0.892,0.92,1.04,0.224,0.198,0.184,0.166,0.203,0.254,0.296,0.25,0.213,0.286,0.0794,0.103,0.092,0.0739,0.0873
HCC-827,0.195,0.129,0.176,0.212,0.214,0.251,0.256,0.27,0.239,0.205,0.558,0.562,0.576,0.498,0.573,0.599,0.514,0.325,0.728,0.459
LXF-289,1.16,1.06,1.11,1.06,1.18,0.908,0.985,0.921,0.767,0.943,0.696,0.731,0.716,0.587,0.718,0.69,0.721,0.659,0.573,0.781
NCI-H596,1.14,0.978,1.12,1.12,0.943,0.523,0.468,0.513,0.498,0.483,0.762,0.675,0.76,0.587,0.675,1.12,1.09,1,0.93,1.04
NCI-H1993,0.819,0.933,0.746,0.883,0.818,0.844,0.547,0.669,0.452,0.479,0.485,0.418,0.508,0.397,0.4,1.04,0.918,0.949,0.881,0.823
NCI-H1437,1.14,1.13,1.07,1.08,1.03,0.337,0.313,0.309,0.258,0.253,0.532,0.491,0.355,0.336,0.264,1.12,1.1,1.07,1.16,1.08
NCI-H1792,0.72,0.629,0.777,0.755,1.03,1.12,0.649,0.675,–,0.585,0.498,0.389,0.432,–,0.316,0.555,0.34,0.325,0.417,0.418
LK-2,0.385,0.335,0.279,0.447,0.307,0.188,0.288,0.244,–,0.327,0.811,0.856,0.684,0.601,0.687,0.185,0.146,0.19,0.185,0.18
HOP-62,0.654,0.548,0.592,0.728,0.97,0.209,0.4,0.38,0.304,0.441,0.343,0.377,0.368,0.361,0.335,0.934,0.798,0.908,0.885,0.85
NCI-H441,1.08,1.02,1.24,1.09,1.59,0.297,0.248,0.235,–,0.244,0.421,0.474,0.409,–,0.333,0.305,0.325,0.313,0.456,0.576
LC-2-ad,0.845,0.845,0.834,0.841,0.952,0.307,0.256,0.293,0.263,0.251,0.973,0.945,0.912,0.757,0.811,1.01,1.13,1.04,0.897,0.956
NCI-H838,0.929,0.97,0.963,0.926,1.06,0.194,0.242,0.272,0.235,0.287,0.458,0.425,0.452,0.391,0.391,0.247,0.33,0.334,0.24,0.246
NCI-H1944,0.586,0.441,0.506,0.447,0.541,0.562,0.55,0.59,0.457,0.512,0.395,0.358,0.368,0.319,0.374,0.755,0.726,0.717,0.738,0.769
